Experimental data reported in patent US8269013B2, “Substituted pyrazole inhibitors of c-Met protein kinase” (Vertex Pharmaceuticals Incorporated, priority 2009, dated 2012).

Experiments:
[1] = molecular target: c-Met (Homo sapiens, UniProt P08581); assay: c-Met kinase inhibition assay (radiometric, 33P-ATP, polyE4Y); assay type: biochemical; conditions: 0.5 nM c-Met, 35 μM ATP, 0.5 mg/mL polyE4Y, 20 min; competitive tight-binding fit
Protocol: The compounds of the invention were screened for their ability to inhibit c-Met kinase using a standard radiometric assay. Briefly, in this kinase assay the transfer of the terminal ^33P-phosphate in ^33P-ATP to substrate polyE4Y is interrogated. […] Accordingly, compounds of the invention were dissolved in DMSO to make 10 mM initial stock solutions. Serial dilutions in DMSO were then made to obtain the final solutions for the assay. A 1.5 μL aliquot of DMSO or inhibitor in DMSO was added to each well, followed by the addition of ^33P-ATP, and finally the addition of c-Met and polyE4Y (obtained from Sigma). After 20 min, the reaction was quenched with 50 μL of 30% trichloroacetic acid (TCA) containing 4 mM ATP. The reaction mixture was transferred to the 0.66 mm GF filter plates (Corning) and washed three times with 5% TCA. Following the addition of 50 μL of Ultimate Gold™ high efficiency scintillant (Packard Bioscience), the samples were counted in a Packard TopCount NXT Microplate Scintillation and Luminescence Counter (Packard BioScience). The Ki values, shown in Table 2, were calculated using Microsoft Excel Solver macros to fit the data to the kinetic model for competitive tight-binding inhibition.

[2] = system: c-Met in Snu5-AP1-Luc-Pest cells; assay: Inhibition of c-Met activity in Snu5 gastric carcinoma cells (Snu5-AP1-Luc-Pest luciferase reporter); assay type: cell-based, human; conditions: Steady-Glo luminescence, 4-parameter fit
Source text: Compounds of formula I were also screened for their ability to inhibit the Luciferase-induced signal in an engineered Snu5 cell line. […] The constitutively active c-Met activates cellular pathways (principally MAP kinase), resulting in AP-1-induced transcription of luciferase-PEST and translation into the final product, the activity of which is quantifiable as a chemiluminescent readout upon the addition of luciferin (Steady-Glo from Promega.). Residual luminescence is strongly correlated to the inhibition of c-Met. A stable cell line was obtained by selecting the new cell line (Snu5-AP1-Luc-Pest) with puromycin. The cells were grown in complete media [Iscove's media (Invitrogen) containing 10% fetal bovine serum (FBS, Hyclone) and penicillin/gentamycin (Invitrogen)]. Compounds of the invention were dissolved in DMSO to make 10 mM initial stock solutions. Serial dilutions in DMSO were then made and transferred to complete medium to make a 10× solution. The Snu5-AP1-Luc-Pest cells were counted and diluted to 200,000-cells/mL solution. The cells (90 μL) were added to each well in a 96-well black with clear bottom plate (Costar). Then 10 μL of the 10× compound solution was added to the cells in triplicate. The plates were incubated in a 37° C./5% CO2 incubator. After 6 hours, 50 μL of the Steady-Glo reagent (Promega) was added to each well and placed on a plate shaker for 5 minutes to ensure that the cells were completely lysed.

Sequence of c-Met (P08581 25-1390): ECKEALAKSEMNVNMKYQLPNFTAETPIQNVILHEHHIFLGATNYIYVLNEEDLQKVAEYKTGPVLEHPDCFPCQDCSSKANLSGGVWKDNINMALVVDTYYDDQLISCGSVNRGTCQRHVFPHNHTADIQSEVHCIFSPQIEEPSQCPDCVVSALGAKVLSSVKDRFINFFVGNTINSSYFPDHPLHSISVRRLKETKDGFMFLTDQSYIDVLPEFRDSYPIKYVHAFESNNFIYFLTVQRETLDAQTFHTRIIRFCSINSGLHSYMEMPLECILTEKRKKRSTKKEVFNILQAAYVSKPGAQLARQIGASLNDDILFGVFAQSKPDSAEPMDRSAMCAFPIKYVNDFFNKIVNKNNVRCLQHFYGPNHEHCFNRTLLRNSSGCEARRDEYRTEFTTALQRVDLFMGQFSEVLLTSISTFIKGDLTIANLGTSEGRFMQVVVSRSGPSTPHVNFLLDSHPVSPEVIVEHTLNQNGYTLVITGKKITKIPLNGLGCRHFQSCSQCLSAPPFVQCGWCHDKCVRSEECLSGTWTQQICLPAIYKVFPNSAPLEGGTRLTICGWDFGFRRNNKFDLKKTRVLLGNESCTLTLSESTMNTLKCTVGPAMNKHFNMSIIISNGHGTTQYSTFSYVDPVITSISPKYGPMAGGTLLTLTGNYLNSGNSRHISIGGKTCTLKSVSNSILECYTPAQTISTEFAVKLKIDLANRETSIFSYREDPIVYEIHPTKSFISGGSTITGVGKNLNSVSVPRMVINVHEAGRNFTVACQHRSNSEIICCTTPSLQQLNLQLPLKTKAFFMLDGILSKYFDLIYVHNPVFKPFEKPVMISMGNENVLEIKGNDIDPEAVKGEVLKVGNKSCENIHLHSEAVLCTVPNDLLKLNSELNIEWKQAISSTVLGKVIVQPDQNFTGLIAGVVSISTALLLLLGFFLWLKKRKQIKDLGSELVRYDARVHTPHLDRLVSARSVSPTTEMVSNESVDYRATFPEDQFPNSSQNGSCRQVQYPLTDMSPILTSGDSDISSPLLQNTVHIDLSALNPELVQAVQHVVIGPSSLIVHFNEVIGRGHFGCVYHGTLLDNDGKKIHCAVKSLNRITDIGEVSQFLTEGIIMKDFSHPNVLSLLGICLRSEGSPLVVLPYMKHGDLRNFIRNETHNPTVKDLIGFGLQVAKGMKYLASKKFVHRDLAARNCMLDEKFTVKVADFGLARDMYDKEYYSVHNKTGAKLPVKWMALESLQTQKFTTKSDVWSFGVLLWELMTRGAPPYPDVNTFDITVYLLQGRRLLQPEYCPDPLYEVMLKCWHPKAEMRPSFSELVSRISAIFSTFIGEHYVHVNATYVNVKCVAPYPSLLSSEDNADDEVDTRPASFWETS

Row | Ki [1] [nM] | IC50 ([2]; Homo sapiens, SNU-5, 6 hours) [nM] | IC50 ([2]; 6 hours) [nM] | SMILES
1 | 70 | 60 | – | C[C@H](c1c(F)cc2ncccc2c1F)c1nnc2sc(-c3cnn(C)c3)nn12 [reference compound]
2 | 4 | 6 | – | CC(C)c1nn(C)cc1-c1nn2c(C(F)(F)c3ccc4ncccc4c3)nnc2s1 [Compound 21]
3 | – | – | 3 | CC(C)c1nn(C)cc1-c1nn2c(Cc3ccc4ncccc4c3)nnc2s1 [Compound 4]
4 | 16 | 12 | – | Cn1cc(-c2nn3c(Cc4c(F)cc5ncccc5c4F)nnc3s2)cn1 [reference compound]
5 | 36 | 14 | – | Cn1cc(-c2nn3c(C(F)(F)c4ccc5ncccc5c4)nnc3s2)cn1 [reference compound]
6 | 2 | 2.5 | – | Cn1cc(-c2nn3c(Cc4c(F)cc5ncccc5c4F)nnc3s2)c(C(F)(F)F)n1 [Compound 17]
7 | 7 | 7 | – | C[C@@H](c1ccc2ncccc2c1)c1nnc2sc(-c3cn(C)nc3C3CC3)nn12 [Compound 12]
8 | 24 | 3 | – | C[C@H](c1ccc2ncccc2c1)c1nnc2sc(-c3cn(C)nc3C3CC3)nn12 [Compound 8]
9 | 22 | 5 | – | Cc1nn(C)cc1-c1nn2c([C@H](C)c3c(F)cc4ncccc4c3F)nnc2s1 [Compound 19]
10 | 2 | 0.5 | – | Cc1nn(C)cc1-c1nn2c([C@@H](C)c3c(F)cc4ncccc4c3F)nnc2s1 [Compound 18]
11 | – | – | 4 | CCc1nn(C)cc1-c1nn2c(Cc3ccc4ncccc4c3)nnc2s1 [Compound 2]
12 | 5 | 6.2 | – | CCc1nn(C)cc1-c1nn2c([C@@H](C)c3ccc4ncccc4c3)nnc2s1 [Compound 10]
13 | 7 | 2 | – | Cc1nn(C)cc1-c1nn2c(Cc3c(F)cc4ncccc4c3F)nnc2s1 [Compound 14]
14 | 3 | 2 | – | C[C@@H](c1ccc2ncccc2c1)c1nnc2sc(-c3cn(C)nc3C(F)(F)F)nn12 [Compound 11]
15 | 2.4 | 3 | – | CC(C)c1nn(C)cc1-c1nn2c(Cc3c(F)cc4ncccc4c3F)nnc2s1 [Compound 16]
16 | 24 | 2.5 | – | Cc1nn(C)cc1-c1nn2c([C@H](C)c3ccc4ncccc4c3)nnc2s1 [Compound 5]
17 | 14 | 4 | – | Cc1nn(C)cc1-c1nn2c(C(F)(F)c3ccc4ncccc4c3)nnc2s1 [Compound 20]
18 | 7 | 2 | – | C[C@H](c1ccc2ncccc2c1)c1nnc2sc(-c3cn(C)nc3C(F)(F)F)nn12 [Compound 6]
19 | – | – | 2 | Cc1nn(C)cc1-c1nn2c(Cc3ccc4ncccc4c3)nnc2s1 [Compound 1]
20 | 15 | 3 | – | Cc1nn(C)cc1-c1nn2c([C@@H](C)c3ccc4ncccc4c3)nnc2s1 [Compound 9]
21 | 360 | 250 | – | Cc1nn(C)cc1-c1nn2c(C(C)(C)c3ccc4ncccc4c3)nnc2s1 [Compound 13]
22 | 5 | 6 | – | C[C@@H](c1c(F)cc2ncccc2c1F)c1nnc2sc(-c3cnn(C)c3)nn12 [reference compound]
23 | 10 | 6 | – | CCc1nn(C)cc1-c1nn2c([C@H](C)c3ccc4ncccc4c3)nnc2s1 [Compound 7]
24 | 2.5 | 2 | – | CCc1nn(C)cc1-c1nn2c(Cc3c(F)cc4ncccc4c3F)nnc2s1 [Compound 15]
25 | 24 | 15 | – | C[C@@H](c1ccc2ncccc2c1)c1nnc2sc(-c3cnn(C)c3)nn12 [reference compound]
26 | – | – | 2 | Cn1cc(-c2nn3c(Cc4ccc5ncccc5c4)nnc3s2)c(C(F)(F)F)n1 [Compound 3]
27 | 3400 | > 1000 | – | Cn1cc(-c2nn3c(C(C)(C)c4ccc5ncccc5c4)nnc3s2)cn1 [reference compound]
28 | 243 | 90 | – | C[C@H](c1ccc2ncccc2c1)c1nnc2sc(-c3cnn(C)c3)nn12 [reference compound]

Row | SMILES | Ki [1] [nM] | IC50 ([2]; Homo sapiens, SNU-5, 6 hours) [nM] | IC50 ([2]; 6 hours) [nM]
29 | Cn1cc(-c2nn3c(Cc4ccc5ncccc5c4)nnc3s2)cn1 [reference compound] | – | 85 | –
